The text below walks through data of US6428974B1, “Microplate for drug susceptibility testing containing a drug, a color reagent, and color suppressant” (Kanto Kagaku Kabushiki Kaisha, priority 1998, dated 2002).

In brackets after ≈: the same amount, converted by molar mass.

Test [1] concerns Candida albicans ATCC 24433. Nature of the test: Turbidity method (Japanese Society for Medical Mycology microdilution). Type of test: cell-based. The note with it: C. albicans ATCC 24433, range over repeated tests (n = 10); for MIC: Candida albicans, ATCC24433. As to the method:
(§1) For the comparison was used the 1.2% glucose MOPS buffered RPMI 1640medium and it was carried out according to the proposed method of Japanese Society for Medical Mycology (the microdilution method of 0.2 ml incubation system).

Test [2] deals with Candida albicans ATCC 90028. The test is described as above. It counts as cell-based. The note with it: C. albicans ATCC 90028, range over repeated tests (n = 10); for MIC: Candida albicans, ATCC90028. As for the experimental part:
as §1

Test [3] concerns Candida krusei ATCC 6258. The test is described as above. It counts as cell-based. The settings on record: C. krusei ATCC 6258, range over repeated tests (n = 10); for MIC: Pichia kudriavzevii, ATCC6258. As for the experimental part:
as §1

The subject of test [4] is Candida parapsilosis ATCC 22019. The test is described as above. Type of test: cell-based. The note with it: C. parapsilosis ATCC 22019, range over repeated tests (n = 10); for MIC: Lodderomyces parapsilosis, ATCC22019. As for the experimental part:
as §1

Test [5] concerns Candida parapsilosis ATCC 90018. The description is as above. It counts as cell-based. The settings on record: C. parapsilosis ATCC 90018, range over repeated tests (n = 7); for MIC: Lodderomyces parapsilosis, ATCC90018. As to the method: as §1
Test [6] concerns Candida tropicalis ATCC 750. The test is described as above. It counts as cell-based. The settings on record: C. tropicalis ATCC 750, range over repeated tests (n = 10); for MIC: Candida tropicalis, ATCC750. As for the experimental part:
as §1

Test [7] concerns Candida albicans ATCC 24433. The experiment in a line: Microplate method of the invention (WST-8 color reagent). It counts as cell-based. The settings on record: C. albicans ATCC 24433, range over repeated tests (n = 10), AMPH complete inhibition, 5-FC/FLCZ/MCZ IC80, 24 or 48 hrs, 35°C; for MIC: Candida albicans, ATCC24433. As for the experimental part: (§2) Four drugs of AMPH, 5-FC, FLCZ and MCZ were considered. The drug solution for the solid phase formation on the microplate was prepared as follows. The drug was dissolved in dimethylsulfoxide (DMSO) or diluted by using it. The solution was prepared so that it was AMPH 128 μg/ml, 5-FC 512 μg/ml, FLCZ 512 μg/ml or MCZ 256 μg/ml. By the use of the prepared drug the two fold dilution series was prepared in an appropriate concentration range with DMSO or water, and separately infused by 25 μl/well and formed into the dry and solid phase under vacuum (13.3-26.6 Pa) for 24 hrs. After the solid phase formation of the antifungal, the color reagent consisting of WST-8 0.7 mM, 1-methoxy PMS 3.5 μM, potassium ferricyanide 0.5 mM and potassium ferrocyanide 0.5 mM was separately infused by 20 μl/well and formed into the dry and solid phase under vacuum for 24 hrs.
(§3) By using the colony within 24 hrs. in the incubation was prepared the fungal suspension with the sterile saline 5 ml. The fungal suspension corresponding to McFarland # 0.5 was prepared by measuring the absorbancy at the wave length of 530 nm. 0.1 ml of the prepared fungal suspension was taken by the micropipette, added to 0.9 ml of the 1.2% glucose MOPS buffered PRMI 1640 medium, and stirred thoroughly by the vortex-mixer, and then 0.1 ml of this was taken by the micropipette, added to 20 ml of the […] MOPS buffered PRMI 1640 medium, and stirred thoroughly by the vortex-mixer to prepare the replicated fungal suspension (0.5×10^3−2.5×10^3 cfu/ml). The replicated fungal suspension prepared was separately inoculated by 200 μl into each well of the microplate dryly fixed with the drug having the concentration gradient of the two fold dilution prepared in the above B. After lidding the plate the aerobic culture was done at 35±1° C. The absorbancy at 630 nm of the growth control (the testing fungal strains were incubated in the well wherein the antifungal agents and the color reagent was not formed into the solid phase) after the 24 hrs. incubation was measured.
(§4) After stirring the microplate under shaking for 1 min., the absorbency of the dominant wave length 450 nm and the complementary wavelength 630 nm was measured, and the reading was carried out by the following method.
(§5) 1. The minimum concentration showing the absorbancy in AMPH equal to or less than that in the negative control was made the minimum growth inhibition concentration (MIC).
(§6) 2. The 80% growth inhibition concentration (IC 80) was read in 5-Fc, FLCZ and MCZ. The drug concentration of the well showing the absorbancy equal to or less than the absorbency obtained by the following equation was made MIC.
(§7) (IC80=(positive control−negative control)×0.2 +negative control)
On the technique in general: Formazan colour is commonly taken as a measure of viable cells.

Test [8] has as its system Candida albicans ATCC 90028. The test is described as above. Type of test: cell-based. The note with it: C. albicans ATCC 90028, range over repeated tests (n = 10), AMPH complete inhibition, 5-FC/FLCZ/MCZ IC80, 24 or 48 hrs, 35°C; for MIC: Candida albicans, ATCC90028. As to the method: as §2, §3, §4, §5, §6, §7
Test [9] deals with Candida krusei ATCC 6258. Described as above. It counts as cell-based. The settings on record: C. krusei ATCC 6258, range over repeated tests (n = 10), AMPH complete inhibition, 5-FC/FLCZ/MCZ IC80, 24 or 48 hrs, 35°C; for MIC: Pichia kudriavzevii, ATCC6258. As for the experimental part: as §2, §3, §4, §5, §6, §7
Test [10] concerns Candida parapsilosis ATCC 22019. The test is described as above. Type of test: cell-based. The note with it: C. parapsilosis ATCC 22019, range over repeated tests (n = 10), AMPH complete inhibition, 5-FC/FLCZ/MCZ IC80, 24 or 48 hrs, 35°C; for MIC: Lodderomyces parapsilosis, ATCC22019. As for the experimental part: as §2, §3, §4, §5, §6, §7
For test [11], the system named is Candida parapsilosis ATCC 90018. Described as above. It counts as cell-based. The settings on record: C. parapsilosis ATCC 90018, range over repeated tests (n = 7), AMPH complete inhibition, 5-FC/FLCZ/MCZ IC80, 24 or 48 hrs, 35°C; for MIC: Lodderomyces parapsilosis, ATCC90018. As to the method: as §2, §3, §4, §5, §6, §7
The subject of test [12] is Candida tropicalis ATCC 750. Described as above. Type of test: cell-based. The settings on record: C. tropicalis ATCC 750, range over repeated tests (n = 10), AMPH complete inhibition, 5-FC/FLCZ/MCZ IC80, 24 or 48 hrs, 35°C; for MIC: Candida tropicalis, ATCC750. As to the method: as §2, §3, §4, §5, §6, §7
Test [13] relates to Candida parapsilosis ATCC 22019. The note with it: C. parapsilosis ATCC 22019; MIC acceptable range of NCCLS M27-A; cited from earlier work.
The test system of test [14] is Candida krusei ATCC 6258. The settings on record: C. krusei ATCC 6258; MIC acceptable range of NCCLS M27-A; cited from earlier work.
Test [15] relates to Candida albicans ATCC 90028. The note with it: C. albicans ATCC 90028; MIC acceptable range of NCCLS M27-A; cited from earlier work.
In test [16] the test system is Candida albicans ATCC 24433. The settings on record: C. albicans ATCC 24433; MIC acceptable range of NCCLS M27-A; cited from earlier work.
Test [17] deals with Candida parapsilosis ATCC 90018. The settings on record: C. parapsilosis ATCC 90018; MIC acceptable range of NCCLS M27-A; cited from earlier work.
The test system of test [18] is Candida tropicalis ATCC 750. The note with it: C. tropicalis ATCC 750; MIC acceptable range of NCCLS M27-A; cited from earlier work.

Take `Nc1[nH]c(=O)ncc1F` [5-FC, Flucytosine]: the MIC was 0.5 to 2 µg/mL (≈ 3.87 to 15.5 µM) in [1]; 0.25 to 2 µg/mL (≈ 1.94 to 15.5 µM) in [2]; 8 to 16 µg/mL (≈ 62 to 124 µM) in [3]; 0.12 to 0.5 µg/mL (≈ 0.93 to 3.87 µM) in [4]; 0.12 µg/mL (≈ 0.93 µM) in [5]; 0.12 µg/mL (≈ 0.93 µM) in [6]. In addition, the MIC is 0.5 to 2 µg/mL (≈ 3.87 to 15.5 µM) in [7]; 0.25 to 1 µg/mL (≈ 1.94 to 7.75 µM) in test [8]; 8 to 16 µg/mL (≈ 62 to 124 µM) in [9]; 0.12 to 0.5 µg/mL (≈ 0.93 to 3.87 µM) in [10]; 0.12 µg/mL (≈ 0.93 µM) in test [11]; 0.12 µg/mL (≈ 0.93 µM) in [12]. Further, the MIC reference range is 0.12 to 0.5 µg/mL in [13]; 4.0 to 16 µg/mL in [14]; 0.5 to 2.0 µg/mL in test [15]; 1.0 to 4.0 µg/mL in [16]; 0.12 to 0.25 µg/mL in test [17]; 0.12 to 0.25 µg/mL in test [18].
Take `C[C@@H]1[C@H](O)[C@@H](C)/C=C/C=C/C=C/C=C/C=C/C=C/C=C/[C@H](O[C@@H]2O[C@H](C)[C@@H](O)[C@H](N)[C@@H]2O)C[C@@H]2O[C@](O)(C[C@@H](O)C[C@@H](O)[C@H](O)CC[C@@H](O)C[C@@H](O)CC(=O)O[C@H]1C)C[C@H](O)[C@H]2C(=O)O` [AMPH, Amphotericine B]: the “MIC, Turbidity method” value in test [1] fell in the range of 0.12 to 0.5 µg/mL; in [2], 0.12 to 0.5 µg/mL; in [3], 0.12 to 0.5 µg/mL; in test [4], 0.06 to 0.25 µg/mL; in test [5], 0.12 to 0.25 µg/mL; in test [6], 0.12 to 0.5 µg/mL. Also, the “MIC, Method of the invention” value in [7] fell in the range of 0.12 to 0.5 µg/mL; in [8], 0.12 to 0.5 µg/mL; in test [9], 0.25 to 0.5 µg/mL; in test [10], 0.12 to 1.0 µg/mL; in test [11] it was 0.12 to 0.25 µg/mL; in [12] it was 0.12 to 0.5 µg/mL. The MIC reference range is 0.25 to 1.0 µg/mL in test [13]; 0.5 to 2.0 µg/mL in [14]; 0.5 to 2.0 µg/mL in [15]; 0.25 to 1.0 µg/mL in test [16]; 0.5 to 2.0 µg/mL in test [17]; 0.5 to 2.0 µg/mL in [18].
Consider `OC(Cn1cncn1)(Cn1cncn1)c1ccc(F)cc1F` [FLCZ, Fluconazole], for which the MIC in test [1] is 0.12 to 1 µg/mL (≈ 0.392 to 3.27 µM); in test [2] it was 0.12 to 0.25 µg/mL (≈ 0.392 to 0.816 µM); in test [3] it was 8 to 64 µg/mL (≈ 26.1 to 209 µM); in [4], 1 to 2 µg/mL (≈ 3.27 to 6.53 µM); in test [5], 0.5 µg/mL (≈ 1.63 µM); in test [6], 0.5 to 1 µg/mL (≈ 1.63 to 3.27 µM). The minimum inhibitory concentration (MIC) in [7] was 0.25 to 8 µg/mL (≈ 0.816 to 26.1 µM); in test [8] it was 0.25 to 1 µg/mL (≈ 0.816 to 3.27 µM); in [9], 16 to 64 µg/mL (≈ 52.2 to 209 µM); in [10] it was 2 to 4 µg/mL (≈ 6.53 to 13.1 µM); in test [11] it was 0.5 to 2 µg/mL (≈ 1.63 to 6.53 µM); in test [12], 0.5 to 2 µg/mL (≈ 1.63 to 6.53 µM). Further, the MIC reference range in test [13] was 2.0 to 8.0 µg/mL; in test [14], 16 to 64 µg/mL; in test [15], 0.25 to 1.0 µg/mL; in [16], 0.25 to 1.0 µg/mL; in test [17], 0.25 to 1.0 µg/mL; in [18], 1.0 to 4.0 µg/mL.
On to `Clc1ccc(COC(Cn2ccnc2)c2ccc(Cl)cc2Cl)c(Cl)c1` (stereo not drawn) [MCZ, Miconazole], for which the MIC is 0.06 to 0.5 µg/mL (≈ 0.144 to 1.2 µM) in test [1]; 0.06 to 0.12 µg/mL (≈ 0.144 to 0.288 µM) in test [2]; 0.25 to 1 µg/mL (≈ 0.601 to 2.4 µM) in [3]; 0.25 to 0.5 µg/mL (≈ 0.601 to 1.2 µM) in test [4]; 0.06 to 0.25 µg/mL (≈ 0.144 to 0.601 µM) in test [5]; 0.12 to 1 µg/mL (≈ 0.288 to 2.4 µM) in test [6]. Moreover, the MIC is 0.06 to 1 µg/mL (≈ 0.144 to 2.4 µM) in test [7]; 0.06 to 0.12 µg/mL (≈ 0.144 to 0.288 µM) in [8]; 0.25 to 1 µg/mL (≈ 0.601 to 2.4 µM) in test [9]; 0.5 to 1 µg/mL (≈ 1.2 to 2.4 µM) in test [10]; 0.12 to 0.5 µg/mL (≈ 0.288 to 1.2 µM) in test [11]; 0.25 to 2 µg/mL (≈ 0.601 to 4.81 µM) in [12].

In general, MIC refers to the lowest concentration that inhibits growth of the organism. A high value points to a less susceptible organism.
